Key:
[1] = DRUGMATRIX: beta-Lactamase enzyme inhibition (substrate: Nitrocefin); design: species or system Bacillus cereus; conditions: Not Active = under 50% inhibition at 10 µM
[2] = target: 5-hydroxytryptamine receptor 2B (Homo sapiens, UniProt P41595); type: cell membranes, CHO-K1, Membrane; conditions: cho-k1; note: in other assays of this panel Not Active means under 50% inhibition at 10 µM
[3] = target: Mitogen-activated protein kinase 1 (Homo sapiens, UniProt P28482); assay: DRUGMATRIX: Protein Serine/Threonine Kinase, ERK2 enzyme inhibition (substrate: Myelin Basic Protein); design: species or system Escherichia coli; conditions: Not Active = under 50% inhibition at 10 µM
Chain of Mitogen-activated protein kinase 1 (P28482 whole entry): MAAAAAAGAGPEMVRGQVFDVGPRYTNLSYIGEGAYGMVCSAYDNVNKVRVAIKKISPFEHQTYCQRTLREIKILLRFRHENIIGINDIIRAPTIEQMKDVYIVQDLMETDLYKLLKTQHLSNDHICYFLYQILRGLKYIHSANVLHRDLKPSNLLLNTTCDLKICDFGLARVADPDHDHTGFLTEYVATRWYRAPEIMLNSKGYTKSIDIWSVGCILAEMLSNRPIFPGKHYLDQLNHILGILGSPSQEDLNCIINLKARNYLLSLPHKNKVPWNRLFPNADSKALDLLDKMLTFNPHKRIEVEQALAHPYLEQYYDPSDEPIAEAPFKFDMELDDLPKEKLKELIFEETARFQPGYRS

Mu-type opioid receptor = Mu-type opioid receptor (Homo sapiens, UniProt P35372); assay: DRUGMATRIX: Opiate mu (OP3, MOP) radioligand binding (ligand: [3H] Diprenorphine); type: cell membranes, CHO-K1, Membrane; conditions: cho-k1; Not Active = under 50% inhibition at 10 µM
Chain of Mu-type opioid receptor (P35372 whole entry): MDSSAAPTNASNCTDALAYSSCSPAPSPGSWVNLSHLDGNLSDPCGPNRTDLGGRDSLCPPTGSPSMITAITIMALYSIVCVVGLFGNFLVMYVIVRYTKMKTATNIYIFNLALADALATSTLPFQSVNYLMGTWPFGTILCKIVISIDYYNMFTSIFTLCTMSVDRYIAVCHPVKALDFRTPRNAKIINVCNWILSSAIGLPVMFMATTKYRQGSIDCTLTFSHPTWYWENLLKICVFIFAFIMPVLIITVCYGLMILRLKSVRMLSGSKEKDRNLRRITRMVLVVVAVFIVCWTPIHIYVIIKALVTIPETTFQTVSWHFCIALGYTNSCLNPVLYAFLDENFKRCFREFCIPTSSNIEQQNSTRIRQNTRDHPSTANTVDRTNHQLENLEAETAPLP

[4] = target: T1, C-X-C chemokine receptor type 1 (Homo sapiens, UniProt P25024); note: in other assays of this panel Not Active means under 50% inhibition at 10 µM
T1 sequence (P25024 whole entry): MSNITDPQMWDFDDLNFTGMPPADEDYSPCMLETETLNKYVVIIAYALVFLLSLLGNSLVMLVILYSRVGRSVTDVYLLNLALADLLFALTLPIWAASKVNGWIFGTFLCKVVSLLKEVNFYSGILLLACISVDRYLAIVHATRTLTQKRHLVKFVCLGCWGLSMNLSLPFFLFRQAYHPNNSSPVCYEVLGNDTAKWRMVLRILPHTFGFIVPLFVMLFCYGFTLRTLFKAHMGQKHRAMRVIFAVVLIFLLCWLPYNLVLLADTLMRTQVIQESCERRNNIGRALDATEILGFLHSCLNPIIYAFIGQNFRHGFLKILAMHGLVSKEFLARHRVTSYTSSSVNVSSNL

Thromboxane-A synthase = target: T2, Thromboxane-A synthase (Homo sapiens, UniProt P24557); assay: biochemical; type: tissue-based, Platelet; conditions: platelet;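 note: enzyme inhibition assay with PGH2 supplied as substrate; in other assays of this panel Not Active means under 50% inhibition at 10 µM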
T2 sequence (P24557 whole entry): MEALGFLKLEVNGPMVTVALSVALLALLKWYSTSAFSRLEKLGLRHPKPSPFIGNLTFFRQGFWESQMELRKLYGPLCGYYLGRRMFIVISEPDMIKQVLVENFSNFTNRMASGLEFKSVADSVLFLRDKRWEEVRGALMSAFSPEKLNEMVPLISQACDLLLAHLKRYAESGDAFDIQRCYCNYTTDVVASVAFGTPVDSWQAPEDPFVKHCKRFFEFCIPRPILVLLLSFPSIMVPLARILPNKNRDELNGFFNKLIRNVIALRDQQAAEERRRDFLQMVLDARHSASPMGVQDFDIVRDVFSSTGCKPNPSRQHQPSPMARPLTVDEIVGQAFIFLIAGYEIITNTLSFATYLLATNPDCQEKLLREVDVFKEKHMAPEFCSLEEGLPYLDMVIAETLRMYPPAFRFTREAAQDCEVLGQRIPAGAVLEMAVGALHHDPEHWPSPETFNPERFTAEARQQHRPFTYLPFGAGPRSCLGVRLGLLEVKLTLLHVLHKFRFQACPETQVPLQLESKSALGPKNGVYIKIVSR

Cytochrome P450 3A4 = Cytochrome P450 3A4 (Homo sapiens, UniProt P08684); conditions: bti-tn-5b1-4; note: in other assays of this panel Not Active means under 50% inhibition at 10 µM
Chain of Cytochrome P450 3A4 (P08684 whole entry): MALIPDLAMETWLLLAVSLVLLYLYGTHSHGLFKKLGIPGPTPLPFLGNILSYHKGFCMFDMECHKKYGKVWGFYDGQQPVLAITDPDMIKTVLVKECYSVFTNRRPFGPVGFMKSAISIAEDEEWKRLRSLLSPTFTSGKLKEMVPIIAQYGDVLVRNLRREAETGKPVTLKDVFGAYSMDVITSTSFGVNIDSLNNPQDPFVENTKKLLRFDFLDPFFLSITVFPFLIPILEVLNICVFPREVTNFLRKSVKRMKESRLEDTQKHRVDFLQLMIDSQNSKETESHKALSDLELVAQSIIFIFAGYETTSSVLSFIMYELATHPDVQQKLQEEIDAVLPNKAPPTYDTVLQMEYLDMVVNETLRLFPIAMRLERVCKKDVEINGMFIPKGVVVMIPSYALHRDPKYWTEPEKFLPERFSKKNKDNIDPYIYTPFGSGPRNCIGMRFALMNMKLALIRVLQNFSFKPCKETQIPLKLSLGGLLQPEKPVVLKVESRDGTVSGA

Chain of 5-hydroxytryptamine receptor 2B (P41595 whole entry): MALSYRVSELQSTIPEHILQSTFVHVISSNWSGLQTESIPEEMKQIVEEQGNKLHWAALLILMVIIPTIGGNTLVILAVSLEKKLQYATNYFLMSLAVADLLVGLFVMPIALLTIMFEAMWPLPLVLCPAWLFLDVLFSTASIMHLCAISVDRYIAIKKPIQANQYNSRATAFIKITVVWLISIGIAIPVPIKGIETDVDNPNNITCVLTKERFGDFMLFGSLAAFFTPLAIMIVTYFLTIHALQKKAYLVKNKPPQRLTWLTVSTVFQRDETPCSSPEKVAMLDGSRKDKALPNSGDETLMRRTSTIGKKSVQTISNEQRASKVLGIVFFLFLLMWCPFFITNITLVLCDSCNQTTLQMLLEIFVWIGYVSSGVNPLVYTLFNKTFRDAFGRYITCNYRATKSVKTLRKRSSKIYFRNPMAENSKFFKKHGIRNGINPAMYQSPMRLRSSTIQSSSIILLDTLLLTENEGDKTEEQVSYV

CC(=O)[C@H]1[C@H](C#N)C[C@H]2[C@@H]3CC=C4C[C@@H](O)CC[C@]4(C)[C@H]3CC[C@@]21C [PREGNENOLONE CARBONITRILE]
Not Active: IC50 [1] | Ki [1] | IC50 [2] | IC50 [3] | IC50 (Mu-type opioid receptor) | IC50 [4] | IC50 (Thromboxane-A synthase) | IC50 (Cytochrome P450 3A4) | Ki (Cytochrome P450 3A4)

CCCN(CCC)S(=O)(=O)c1ccc(C(=O)O)cc1 [PROBENECID]
Not Active: IC50 [1] | Ki [1] | IC50 [2] | IC50 [3] | IC50 (Mu-type opioid receptor) | IC50 [4] | IC50 (Thromboxane-A synthase) | IC50 (Cytochrome P450 3A4) | Ki (Cytochrome P450 3A4)

CCCOc1ccc(C(=O)OCCN(CC)CC)cc1N [PROPARACAINE]
Not Active: IC50 [1] | Ki [1] | IC50 [2] | IC50 [3] | IC50 (Mu-type opioid receptor) | IC50 [4] | IC50 (Thromboxane-A synthase) | IC50 (Cytochrome P450 3A4) | Ki (Cytochrome P450 3A4)

Oc1cccc(O)c1O [PYROGALLOL]
Not Active: IC50 [1] | Ki [1] | IC50 [2] | IC50 [3] | IC50 (Mu-type opioid receptor) | IC50 [4] | IC50 (Thromboxane-A synthase) | IC50 (Cytochrome P450 3A4) | Ki (Cytochrome P450 3A4)
